Like-named read-outs stand apart in the source and are kept apart here. Where no end group is shown, it is not given here.
Experiments:
interleukin-1β (IL-1β) = experiment: IL-1β content in alcoholic damaged HepG2 cells (ELISA); type: cell-based, human; settings: 3 mM (positive control); 500 mM ethanol-damaged HepG2
Procedure: (§1) HepG2 cells are collected, digested, centrifuged, and resuspended. The HepG2 cells are then seeded into a 6-well plate at a density of 1×10^6 cells per well, with 1.6 mL of cell suspension added to each well. After incubating the plate in a 37° C., 5% CO2 incubator for 24 hours, 200 μL of distilled water is added to the blank wells as the blank group. Referring to Section 1.2.2.2 and the preparation of blank group cell sample, an anhydrous ethanol-induced damage model is established. The HepG2 cells are damaged with 500 mM anhydrous ethanol for 24 hours. The model group receives 200 μL of distilled water, while the positive control wells receive 200 μL of NAC at a final concentration of 3 mM. The treatment wells receive 200 μL of the modified peptide derived from Urechis unicinctus of F2-1 at final concentrations of 200 μM, 300 μM, and 400 μM (dissolved in water). After adding the modeling solution, the plate is incubated in a 37° C., 5% CO2 incubator for an additional 24 hours. The 6-well plate is then taken out and placed on ice. […]
(§2) ELISA kits are purchased from Hangzhou Leyi Biotechnology Co., Ltd. An ELISA plate reader is used to measure indicators such as the interleukin-1β (IL-1β) ELISA kit, interleukin-6 (IL-6) ELISA kit, and Cytochrome P450 2E1 (CYP2E1) ELISA kit.

HepG2 cells [1] = experiment: Biochemical indicators (ALT, AST, TC, TG, HDL-C, LDL-C) in alcoholic damaged HepG2 cells; type: cell-based, human; settings: 3 mM (positive control); 500 mM ethanol-damaged HepG2
Procedure: (§3) HepG2 cells are collected, digested, centrifuged, and resuspended. The HepG2 cells are then seeded into a 6-well plate at a density of 1×10^6 cells per well, with 1.6 mL of cell suspension added to each well. After incubating the plate in a 37° C., 5% CO2 incubator for 24 hours, 200 μL of distilled water is added to the blank wells as the blank group. Referring to Section 1.2.2.2 and the preparation of blank group cell sample, an anhydrous ethanol-induced damage model is established. The HepG2 cells are damaged with 500 mM anhydrous ethanol for 24 hours. The model group receives 200 μL of distilled water, while the positive control wells receive 200 μL of NAC at a final concentration of 3 mM. The treatment wells receive 200 μL of the modified peptide derived from Urechis unicinctus of F2-1 at final concentrations of 200 μM, 300 μM, and 400 μM (dissolved in water). After adding the modeling solution, the plate is incubated in a 37° C., 5% CO2 incubator for an additional 24 hours. The 6-well plate is then taken out and placed on ice. All liquids in the wells are discarded, and the cells are washed three times with pre-chilled phosphate buffer solution (PBS). High-efficiency radio immunoprecipitation assay (RIPA) lysis buffer is added, and the HepG2 cells are lysed on ice for 30 minutes. The lysates are then centrifuged at 12,000 rpm for 10 minutes at low temperature, and the white precipitate is discarded.
Reagent kits are purchased from Nanjing Jiancheng Bioengineering Institute. An enzyme-linked immunosorbent assay (ELISA) plate reader is used to measure biochemical indicators such as alanine aminotransferase (ALT), aspartate aminotransferase (AST), triglycerides (TG), total cholesterol (TC), high-density lipoprotein cholesterol (HDL-C), and low-density lipoprotein cholesterol (LDL-C).

[2] = test system: Cytochrome P450 2E1 (CYP2E1); experiment: CYP2E1 content in alcoholic damaged HepG2 cells (ELISA); type: cell-based, human; settings: 500 mM ethanol-damaged HepG2
Procedure: as §3, §2

interleukin-6 (IL-6) = experiment: IL-6 content in alcoholic damaged HepG2 cells (ELISA); type: cell-based, human; settings: 3 mM (positive control); 500 mM ethanol-damaged HepG2
Procedure: as §1, §2

HepG2 cells [3] = type: cell-based; settings: human, 24 h
Procedure: When a cell density of the cells reached 90%, the cells are digested and passaged to form a single-cell suspension. The cell concentration is determined using a hemocytometer, and the suspension is adjusted to 8×10^4 cells per well. A volume of 180 μL of the cell suspension is added to each well of a 96-well plate. The 96-well plate is then incubated in a 37° C., 5% CO2 cell incubator for 24 hours. The cells are subjected to alcoholic damage for 24 hours using gradient concentrations of anhydrous ethanol at […] (final concentrations). A blank group received no addition. All solutions in the 96-well plate are aspirated, and 100 μL of a 10% CCK-8 solution is added to each well. After incubation for 1 hour, the absorbance is measured at 450 nanometers (nm) using a microplate reader. The cell viability is calculated using the following formula: […]
HepG2 cells are collected, digested, centrifuged, and resuspended. The HepG2cells are then seeded into a 96-well plate at a density of 8×10^4 cells per well, with 160 μL of cell suspension added to each well. After incubating the plate in a 37° C., 5% CO2 incubator for 24 hours, 20 μL of distilled water is added to a blank well as the blank group. Referring to Section 1.2.2.2 and the preparation of blank group cell sample, an anhydrous ethanol-induced damage model is established. The HepG2 cells are damaged with 500 mM anhydrous ethanol for 24 hours. The model group received 20 μL of distilled water, while the positive control wells received 20 μL of N-acetylcysteine (NAC) at a final concentration of 3 mM. The treatment wells receive 20 μL of the modified peptide derived from Urechis unicinctus of F2-1 at final concentrations of 200 μM, 300 μM, and 400 μM (dissolved in water). The 96-well plate is then incubated in a 37° C., 5% CO2 incubator for 24 hours after adding the modeling solution. […] The absorbance is measured at 450 nm using a microplate reader after 1 hour of incubation. The cell viability is calculated using the following formula: […]

| Molecule | IL-1β content in HepG2 cells (interleukin-1β (IL-1β)) [pg/mL] | ALT level in HepG2 cells (HepG2 cells [1]) [U/L] | AST level in HepG2 cells (HepG2 cells [1]) [U/L] | HDL-C level in HepG2 cells (HepG2 cells [1]) [mmol/L] | LDL-C level in HepG2 cells (HepG2 cells [1]) [mmol/L] | TC level in HepG2 cells (HepG2 cells [1]) [mmol/L] | TG level in HepG2 cells (HepG2 cells [1]) [mmol/L] | CYP2E1 content in HepG2 cells ([2]; 3 mM (positive control)) [U/mg prot] | IL-6 content in HepG2 cells (interleukin-6 (IL-6)) [pg/mL] | CYP2E1 content in HepG2 cells ([2]; 200 μM (low dose), vs model group) | CYP2E1 content in HepG2 cells ([2]; 300 μM (medium dose), vs model group) | CYP2E1 content in HepG2 cells ([2]; 400 μM (high dose)) [U/mg prot] | cell viability (HepG2 cells [3]; 200 μM) [%] | cell viability (HepG2 cells [3]; 300 μM) [%] | cell viability (HepG2 cells [3]; 400 μM) [%] |
| --- | --- | --- | --- | --- | --- | --- | --- | --- | --- | --- | --- | --- | --- | --- | --- |
| CC(=O)N[C@@H](CS)C(=O)O [NAC, N-acetylcysteine] | 123.36 ± 1.67 | 7.93±0.14 | 8.26±0.30 | 0.12 ± 0.02 | 0.01 ± 0.00 | 0.06 ± 0.02 | 0.49 ± 0.00 | 7.80±0.96 | 87.25 ± 5.30 |  |  |  |  |  |  |
| IHVKF [F2-1, IHVKF] |  |  |  |  |  |  |  |  |  | do not significantly reduce | do not significantly reduce | 7.97±0.78 | 80.65±5.67 | 85.39±9.61 | 94.58±4.22 |
